The molecules below were run against activated ERK2 (Homo sapiens (Human), UniProt P28482) (assay: Activated ERK2 kinase assay, ERK2 New conditions (AlphaScreen, ERKtide phosphorylation)). Details: 0.25 nM ERK2, 200 nM ERKtide peptide, 35 μM ATP, 30 min preincubation.
Type: biochemical
Description: The assay is carried out in 50 mM HEPES [pH 7.5], 5 mM MgCl2, 1 mM DTT, 0.01% Tween-20, 0.05% BSA using 0.25 nM ERK2, 200 nM ERKtide peptide and 35 μM ATP (all concentrations are final in the reaction) in a total volume of 10.25 μL. […] Compound dilution series are prepared in 100% DMSO. ERK2 is preincubated with compounds for 30 minutes at ambient temperature. Reaction is initiated by addition of a substrate cocktail of ERKtide peptide and ATP and is allowed to proceed for 2-3 hours at ambient temperature. Reaction is terminated by addition of 10 μL of a 2× stop buffer consisting of 100 mM Tris-Cl [pH 7.5], 25 mM EDTA, 0.01% Tween 20, 10 μg/mL of AlphaScreen Protein A Acceptor Beads, 10 μg/mL of Streptavidin Donor Beads (PerkinElmer, Waltham, Mass.), and 1.4 μg/mL phospho-EGF Receptor (Thr669) antibody (Cat #3056, Cell Signaling Technology, Danvers, Mass.). Terminated reactions are read, after overnight incubation in the dark, on an EnVision Multilabel Plate Reader (PerkinElmer, Waltham, Mass.), with excitation and emission wavelengths set to 680 nm and 570 nm, respectively. IC50 values are determined using a four-parameter fit.

Chain of activated ERK2 (P28482 whole entry): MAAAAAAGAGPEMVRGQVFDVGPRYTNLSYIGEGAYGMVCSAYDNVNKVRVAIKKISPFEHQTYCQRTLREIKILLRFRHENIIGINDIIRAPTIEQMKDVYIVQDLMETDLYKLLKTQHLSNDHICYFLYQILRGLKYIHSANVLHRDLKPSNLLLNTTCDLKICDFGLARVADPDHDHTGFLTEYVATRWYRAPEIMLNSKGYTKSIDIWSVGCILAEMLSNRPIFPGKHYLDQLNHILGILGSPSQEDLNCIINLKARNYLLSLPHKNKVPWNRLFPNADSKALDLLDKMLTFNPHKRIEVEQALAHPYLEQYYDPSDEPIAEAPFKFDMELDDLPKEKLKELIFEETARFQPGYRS

Row | Compound | IC50 [nM]
1 | Nc1ncc([C@@H]2CN[C@H](CO)C2)cc1-c1ccc(C(=O)N[C@H](CO)c2cccc(Cl)c2)c(F)c1 [Example 7, 4-(2-amino-5-((3R,5S)-5-(hydroxymethyl)pyrrolidin-3-yl)pyridin-3-yl)-N—((S)-1-(3-chlorophenyl)-2-hydroxyethyl)-2-fluorobenzamide] | 65.2
2 | Nc1ncc([C@H]2C[C@H]3COCC(=O)N3C2)cc1-c1ccc(C(=O)N[C@H](CO)c2cccc(Cl)c2)c(F)c1 [Example 8, 4-(2-amino-5-((7R,8aS)-4-oxohexahydro-1H-pyrrolo[2,1-c][1,4]oxazin-7-yl)pyridin-3-yl)-N—((S)-1-(3-chlorophenyl)-2-hydroxyethyl)-2-fluorobenzamide] | 4.12
3 | Nc1ncc([C@H]2C[C@H]3COC(=O)N3C2)cc1-c1ccc(C(=O)N[C@H](CO)c2cccc(Cl)c2)c(F)c1 [Example 9, 4-(2-amino-5-((6R,7aS)-3-oxohexahydropyrrolo[1,2-c]oxazol-6-yl)pyridin-3-yl)-N—((S)-1-(3-chlorophenyl)-2-hydroxyethyl)-2-fluorobenzamide] | 3.57
4 | N=C1OC[C@@H]2C[C@H](c3cnc(N)c(-c4ccc(C(=O)N[C@H](CO)c5cccc(Cl)c5)c(F)c4)c3)CN12 [Example 10, 4-(2-amino-5-((6R,7aS)-3-iminohexahydropyrrolo[1,2-c]oxazol-6-yl)pyridin-3-yl)-N—((S)-1-(3-chlorophenyl)-2-hydroxyethyl)-2-fluorobenzamide] | 12.1
5 | Nc1ncc([C@H]2C[C@H]3COC(=S)N3C2)cc1-c1ccc(C(=O)N[C@H](CO)c2cccc(Cl)c2)c(F)c1 [Example 11, 4-(2-amino-5-((6R,7aS)-3-thioxohexahydropyrrolo[1,2-c]oxazol-6-yl)pyridin-3-yl)-N—((S)-1-(3-chlorophenyl)-2-hydroxyethyl)-2-fluorobenzamide] | 3.77
6 | Nc1ncc([C@H]2CC[C@H](O)CC2)nc1-c1ccc(C(=O)NCc2ccccc2)c(F)c1 [Example 14, 4-(3-amino-6-((1r,4r)-4-hydroxycyclohexyl)pyrazin-2-yl)-N-benzyl-2-fluorobenzamide] | 12.7
7 | Nc1ncc([C@H]2CC[C@@H](O)CC2)nc1-c1ccc(C(=O)NCc2ccccc2)c(F)c1 [Example 15, 4-(3-amino-6-((1s,4s)-4-hydroxycyclohexyl)pyrazin-2-yl)-N-benzyl-2-fluorobenzamide] | 235
8 | COC(=O)CCc1cnc(N)c(-c2ccc(C(=O)NCc3ccccc3)c(F)c2)n1 [Example 19, methyl 3-(5-amino-6-(4-(benzylcarbamoyl)-3-fluorophenyl)pyrazin-2-yl)propanoate] | 6030
9 | CNC(=O)CCc1cnc(N)c(-c2ccc(C(=O)NCc3ccccc3)c(F)c2)n1 [Example 20, 4-(3-amino-6-(3-(methylamino)-3-oxopropyl)pyrazin-2-yl)-N-benzyl-2-fluorobenzamide] | 1090
10 | CS(=O)(=O)CCc1cnc(N)c(-c2ccc(C(=O)NCc3ccccc3)c(F)c2)n1 [Example 21, 4-(3-amino-6-(2-(methylsulfonyl)ethyl)pyrazin-2-yl)-N-benzyl-2-fluorobenzamide] | 2670
11 | Nc1ncc(C2CCC(=O)NC2)cc1-c1ccc(C(=O)N[C@H](CO)c2cccc(Cl)c2)c(F)c1 (stereo partly drawn) [Example 25, 4-(2-amino-5-(6-oxopiperidin-3-yl)pyridin-3-yl)-N—((S)-1-(3-chlorophenyl)-2-hydroxyethyl)-2-fluorobenzamide] | 0.343
12 | CN1CCC(c2cnc(N)c(-c3ccc(C(=O)N[C@H](CO)c4cccc(Cl)c4)c(F)c3)c2)CC1=O (stereo partly drawn) [Example 26, 4-(2-amino-5-(1-methyl-2-oxopiperidin-4-yl)pyridin-3-yl)-N—((S)-1-(3-chlorophenyl)-2-hydroxyethyl)-2-fluorobenzamide] | 3.27
13 | C[C@@H](NC(=O)c1ccc(-c2cc(C3CCN(C)C(=O)C3)cnc2N)cc1F)c1ccccc1 (stereo partly drawn) [Example 29, 4-(2-amino-5-(1-methyl-2-oxopiperidin-4-yl)pyridin-3-yl)-2-fluoro-N—((R)-1-phenylethyl)benzamide] | 75.2
14 | CN1CC(c2cnc(N)c(-c3ccc(C(=O)N[C@H](CO)c4cccc(Cl)c4)c(F)c3)c2)CCC1=O (stereo partly drawn) [Example 35, 4-(2-amino-5-(1-methyl-6-oxopiperidin-3-yl)pyridin-3-yl)-N—((S)-1-(3-chlorophenyl)-2-hydroxyethyl)-2-fluorobenzamide] | 1.09
15 | CN1C[C@@H](c2cnc(N)c(-c3ccc(C(=O)N[C@H](CO)c4cccc(Cl)c4)c(F)c3)c2)CCC1=O [Example 36, 4-(2-amino-5-((R)-1-methyl-6-oxopiperidin-3-yl)pyridin-3-yl)-N—((S)-1-(3-chlorophenyl)-2-hydroxyethyl)-2-fluorobenzamide] | 1.6
16 | CN1C[C@H](c2cnc(N)c(-c3ccc(C(=O)N[C@H](CO)c4cccc(Cl)c4)c(F)c3)c2)CCC1=O [Example 37, 4-(2-amino-5-((S)-1-methyl-6-oxopiperidin-3-yl)pyridin-3-yl)-N—((S)-1-(3-chlorophenyl)-2-hydroxyethyl)-2-fluorobenzamide] | 1.05
17 | C[C@@H](NC(=O)c1ccc(-c2cc(C3CCC(=O)N(C)C3)cnc2N)cc1F)c1cccc(Cl)c1 (stereo partly drawn) [Example 38, 4-(2-amino-5-(1-methyl-6-oxopiperidin-3-yl)pyridin-3-yl)-N—((R)-1-(3-chlorophenyl)ethyl)-2-fluorobenzamide] | 8.09
18 | CN1CC(c2cnc(N)c(-c3ccc(C(=O)N[C@H](CO)c4ccccc4)c(F)c3)c2)CC1=O (stereo partly drawn) [Example 41, 4-(2-amino-5-(1-methyl-5-oxopyrrolidin-3-yl)pyridin-3-yl)-2-fluoro-N—((S)-2-hydroxy-1-phenylethyl)benzamide] | 51
19 | CN1CC(c2cnc(N)c(-c3ccc(C(=O)N[C@H](CO)c4cccc(Cl)c4)c(F)c3)c2)CC1=O (stereo partly drawn) [Example 42, 4-(2-amino-5-(1-methyl-5-oxopyrrolidin-3-yl)pyridin-3-yl)-N—((S)-1-(3-chlorophenyl)-2-hydroxyethyl)-2-fluorobenzamide] | 5.44
20 | CN1C[C@@H](c2cnc(N)c(-c3ccc(C(=O)N[C@H](CO)c4cccc(Cl)c4)c(F)c3)c2)CC1=O [Example 43, 4-(2-amino-5-((R)-1-methyl-5-oxopyrrolidin-3-yl)pyridin-3-yl)-N—((S)-1-(3-chlorophenyl)-2-hydroxyethyl)-2-fluorobenzamide] | 5.32
21 | CN1C[C@H](c2cnc(N)c(-c3ccc(C(=O)N[C@H](CO)c4cccc(Cl)c4)c(F)c3)c2)CC1=O [Example 44, 4-(2-amino-5-((S)-1-methyl-5-oxopyrrolidin-3-yl)pyridin-3-yl)-N—((S)-1-(3-chlorophenyl)-2-hydroxyethyl)-2-fluorobenzamide] | 4.77
22 | CC1(c2cnc(N)c(-c3ccc(C(=O)N[C@H](CO)c4ccccc4)c(F)c3)c2)CCOCC1 [Example 45, (S)-4-(2-Amino-5-(4-methyltetrahydro-2H-pyran-4-yl)pyridin-3-yl)-2-fluoro-N-(2-hydroxy-1-phenylethyl)benzamide] | 3.61
23 | Nc1nccnc1-c1ccc(C(=O)NCc2ccccc2)cc1 [Example 46, 4-(3-aminopyrazin-2-yl)-N-benzylbenzamide] | 4790
24 | C[C@@H](NC(=O)c1ccc(-c2nc(C3CCOCC3)cnc2N)cc1F)c1ccccc1 [Example 47, (R)-4-(3-amino-6-(tetrahydro-2H-pyran-4-yl)pyrazin-2-yl)-2-fluoro-N-(1-phenylethyl)benzamide] | 0.818
25 | Nc1ncc(C2CCOCC2)nc1-c1ccc(C(=O)N[C@@H]2CCCN(S(=O)(=O)c3ccccc3F)C2)c(F)c1 [Example 48, (R)-4-(3-amino-6-(tetrahydro-2H-pyran-4-yl)pyrazin-2-yl)-2-fluoro-N-(1-((2-fluorophenyl)sulfonyl)piperidin-3-yl)benzamide] | 122
26 | Nc1ncc(C2CCOCC2)nc1-c1ccc(C(=O)N[C@@H]2CCCN(S(=O)(=O)c3ccccc3)C2)c(F)c1 [Example 49, (R)-4-(3-amino-6-(tetrahydro-2H-pyran-4-yl)pyrazin-2-yl)-2-fluoro-N-(1-(phenylsulfonyl)piperidin-3-yl)benzamide] | 45.9
27 | CN(C(=O)c1ccc(-c2nc(C3CCOCC3)cnc2N)cc1F)[C@H](CO)c1ccccc1 [Example 53, (S)-4-(3-amino-6-(tetrahydro-2H-pyran-4-yl)pyrazin-2-yl)-2-fluoro-N-(2-hydroxy-1-phenylethyl)-N-methylbenzamide] | 12.3
28 | Nc1ncc(C2CCOCC2)nc1-c1ccc(C(=O)N2COC[C@@H]2c2ccccc2)cc1 [Example 54, (S)-(4-(3-amino-6-(tetrahydro-2H-pyran-4-yl)pyrazin-2-yl)phenyl)(4-phenyloxazolidin-3-yl)methanone] | 107
29 | CS(=O)(=O)N1CCC(c2cnc(N)c(-c3ccc(C(=O)N[C@H](CO)c4ccccc4)c(F)c3)n2)CC1 [Example 56, (S)-4-(3-amino-6-(1-(methylsulfonyl)piperidin-4-yl)pyrazin-2-yl)-2-fluoro-N-(2-hydroxy-1-phenylethyl)benzamide] | 3.89
30 | C[C@@H](NC(=O)c1ccc(-c2nc(C3CCN(S(C)(=O)=O)CC3)cnc2N)cc1F)c1cccc(Cl)c1 [Example 57] | 1.14

From patent US9242996B2 (Novartis AG, priority 2013, dated 2016)
